Data as given in PubChem BioAssay (NCI).
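Each compound was tested at five concentrations against cells in 96-well plates for 48 hours. Definition used: TGI = concentration required for complete inhibition of growth.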

What was measured:
Test in all cases: growth of human tumour cells (NCI), 48 h
TK-10 renal = tested on: TK-10 renal
786-0 renal = tested on: 786-0 renal
HL-60(TB) leukemia = tested on: HL-60(TB) leukemia
PC-3 prostate = tested on: PC-3 prostate
U251 CNS = tested on: U251 CNS
HCT-15 colon = tested on: HCT-15 colon
A549 NSCLC = tested on: A549 NSCLC
NCI-H460 lung = tested on: NCI-H460 lung
KM12 colon = tested on: KM12 colon
SN12C renal = tested on: SN12C renal
K-562 leukemia = tested on: K-562 leukemia
RXF 393 renal = tested on: RXF 393 renal
NCI-H522 lung = tested on: NCI-H522 lung
ACHN renal = tested on: ACHN renal
NCI-H226 lung = tested on: NCI-H226 lung
SK-MEL-28 melanoma = tested on: SK-MEL-28 melanoma
T-47D breast = tested on: T-47D breast
COLO 205 colon = tested on: COLO 205 colon
MDA-MB-231 breast = tested on: MDA-MB-231 breast
HCT-116 colon = tested on: HCT-116 colon
UACC-257 melanoma = tested on: UACC-257 melanoma
HT29 colon = tested on: HT29 colon
OVCAR-8 ovarian = tested on: OVCAR-8 ovarian
SF-295 CNS = tested on: SF-295 CNS
BT-549 breast = tested on: BT-549 breast
MALME-3M melanoma = tested on: MALME-3M melanoma
EKVX NSCLC = tested on: EKVX NSCLC
M14 melanoma = tested on: M14 melanoma
IGROV1 ovarian = tested on: IGROV1 ovarian
SF-268 CNS = tested on: SF-268 CNS
MDA-N = tested on: MDA-N
MDA-MB-435 = tested on: MDA-MB-435
LOX IMVI melanoma = tested on: LOX IMVI melanoma
CAKI-1 renal = tested on: CAKI-1 renal
SF-539 CNS = tested on: SF-539 CNS
HCC-2998 colon = tested on: HCC-2998 colon
SK-MEL-5 melanoma = tested on: SK-MEL-5 melanoma
UO-31 renal = tested on: UO-31 renal
SK-MEL-2 melanoma = tested on: SK-MEL-2 melanoma
OVCAR-5 ovarian = tested on: OVCAR-5 ovarian
HS 578T breast = tested on: HS 578T breast
OVCAR-4 ovarian = tested on: OVCAR-4 ovarian
UACC-62 melanoma = tested on: UACC-62 melanoma
MCF7 breast = tested on: MCF7 breast
DU-145 prostate = tested on: DU-145 prostate
RPMI-8226 leukemia = tested on: RPMI-8226 leukemia
A498 renal = tested on: A498 renal
NCI-H23 lung = tested on: NCI-H23 lung
SW-620 colon = tested on: SW-620 colon
SNB-75 CNS = tested on: SNB-75 CNS
NCI/ADR-RES ovarian = tested on: NCI/ADR-RES ovarian
MOLT-4 leukemia = tested on: MOLT-4 leukemia
CCRF-CEM leukemia = tested on: CCRF-CEM leukemia
HOP-62 NSCLC = tested on: HOP-62 NSCLC
OVCAR-3 ovarian = tested on: OVCAR-3 ovarian
HOP-92 NSCLC = tested on: HOP-92 NSCLC
SNB-19 CNS = tested on: SNB-19 CNS
SK-OV-3 ovarian = tested on: SK-OV-3 ovarian

## NC(Cc1ccc(S(=O)(=O)O)cc1)C(=O)NC(Cc1ccc(S(=O)(=O)O)cc1)C(=O)NC(Cc1ccc(S(=O)(=O)O)cc1)C(=O)O (stereo unspecified)
TK-10 renal
  TGI: > 100 µM
786-0 renal
  TGI: > 100 µM
HL-60(TB) leukemia
  TGI: > 100 µM
PC-3 prostate
  TGI: > 100 µM
U251 CNS
  TGI: > 100 µM
HCT-15 colon
  TGI: > 100 µM
A549 NSCLC
  TGI: > 100 µM
NCI-H460 lung
  TGI: > 100 µM
KM12 colon
  TGI: > 100 µM
SN12C renal
  TGI: > 100 µM
K-562 leukemia
  TGI: > 100 µM
RXF 393 renal
  TGI: > 100 µM
NCI-H522 lung
  TGI: > 100 µM
ACHN renal
  TGI: > 100 µM
NCI-H226 lung
  TGI: > 100 µM
SK-MEL-28 melanoma
  TGI: > 100 µM
T-47D breast
  TGI: > 100 µM
COLO 205 colon
  TGI: > 100 µM
MDA-MB-231 breast
  TGI: > 100 µM
HCT-116 colon
  TGI: > 100 µM
UACC-257 melanoma
  TGI: > 100 µM
HT29 colon
  TGI: > 100 µM
OVCAR-8 ovarian
  TGI: > 100 µM
SF-295 CNS
  TGI: > 100 µM
BT-549 breast
  TGI: > 100 µM
MALME-3M melanoma
  TGI: > 100 µM
EKVX NSCLC
  TGI: > 100 µM
M14 melanoma
  TGI: > 100 µM
IGROV1 ovarian
  TGI: > 100 µM
SF-268 CNS
  TGI: > 100 µM
MDA-N
  TGI: > 100 µM
MDA-MB-435
  TGI: > 100 µM
LOX IMVI melanoma
  TGI: > 100 µM
CAKI-1 renal
  TGI: > 100 µM
SF-539 CNS
  TGI: > 100 µM
HCC-2998 colon
  TGI: > 100 µM
SK-MEL-5 melanoma
  TGI: > 100 µM
UO-31 renal
  TGI: > 100 µM
SK-MEL-2 melanoma
  TGI: > 100 µM
OVCAR-5 ovarian
  TGI: > 100 µM
HS 578T breast
  TGI: > 100 µM
OVCAR-4 ovarian
  TGI: > 100 µM
UACC-62 melanoma
  TGI: > 100 µM
MCF7 breast
  TGI: > 100 µM
DU-145 prostate
  TGI: > 100 µM
RPMI-8226 leukemia
  TGI: > 100 µM
A498 renal
  TGI: > 100 µM
NCI-H23 lung
  TGI: > 100 µM
SW-620 colon
  TGI: > 100 µM
SNB-75 CNS
  TGI: > 100 µM
NCI/ADR-RES ovarian
  TGI: > 100 µM
MOLT-4 leukemia
  TGI: > 100 µM
CCRF-CEM leukemia
  TGI: > 100 µM
HOP-62 NSCLC
  TGI: > 100 µM
OVCAR-3 ovarian
  TGI: > 100 µM

## Cc1ccc(/C=C2\CCCC(CN(C)C)C2=O)cc1 (stereo unspecified)
TK-10 renal
  TGI: 8.26 µM
786-0 renal
  TGI: 3.23 µM
HL-60(TB) leukemia
  TGI: > 100 µM
PC-3 prostate
  TGI: 8.9 µM
U251 CNS
  TGI: 26.4 µM
HOP-92 NSCLC
  TGI: 3.75 µM
HCT-15 colon
  TGI: 4.23 µM
A549 NSCLC
  TGI: 30.9 µM
NCI-H460 lung
  TGI: 13.1 µM
KM12 colon
  TGI: 3.57 µM
SN12C renal
  TGI: 3.91 µM
K-562 leukemia
  TGI: > 100 µM
RXF 393 renal
  TGI: 3.34 µM
NCI-H522 lung
  TGI: 1.98 µM
ACHN renal
  TGI: 7.19 µM
NCI-H226 lung
  TGI: 6.82 µM
SK-MEL-28 melanoma
  TGI: 3.9 µM
T-47D breast
  TGI: 3.25 µM
COLO 205 colon
  TGI: 3.13 µM
MDA-MB-231 breast
  TGI: 3.08 µM
HCT-116 colon
  TGI: 3.1 µM
UACC-257 melanoma
  TGI: 3.99 µM
HT29 colon
  TGI: 3.07 µM
SF-295 CNS
  TGI: 31.2 µM
BT-549 breast
  TGI: 6.4 µM
MALME-3M melanoma
  TGI: 3.77 µM
EKVX NSCLC
  TGI: 31.5 µM
M14 melanoma
  TGI: 3.31 µM
IGROV1 ovarian
  TGI: 4.15 µM
MDA-N
  TGI: 3.85 µM
MDA-MB-435
  TGI: 3.74 µM
LOX IMVI melanoma
  TGI: 3.38 µM
CAKI-1 renal
  TGI: 2.88 µM
SF-539 CNS
  TGI: 6.61 µM
HCC-2998 colon
  TGI: 27.4 µM
SK-MEL-5 melanoma
  TGI: 12.5 µM
UO-31 renal
  TGI: 3.12 µM
SNB-19 CNS
  TGI: 30.1 µM
SK-MEL-2 melanoma
  TGI: 15.4 µM
OVCAR-5 ovarian
  TGI: 29.5 µM
HS 578T breast
  TGI: > 100 µM
OVCAR-4 ovarian
  TGI: 3.8 µM
UACC-62 melanoma
  TGI: 5.09 µM
MCF7 breast
  TGI: 1.92 µM
DU-145 prostate
  TGI: 21.9 µM
A498 renal
  TGI: 27.4 µM
NCI-H23 lung
  TGI: 4.97 µM
SW-620 colon
  TGI: 2.88 µM
SNB-75 CNS
  TGI: 20.3 µM
NCI/ADR-RES ovarian
  TGI: 17.1 µM
MOLT-4 leukemia
  TGI: > 100 µM
CCRF-CEM leukemia
  TGI: > 100 µM
SK-OV-3 ovarian
  TGI: 26.4 µM
HOP-62 NSCLC
  TGI: 34.7 µM
OVCAR-3 ovarian
  TGI: 3.22 µM

## CCOC(=O)c1c(-c2ccc(Br)cc2)ccn1C
TK-10 renal
  TGI: > 10 µM
786-0 renal
  TGI: > 10 µM
HL-60(TB) leukemia
  TGI: > 10 µM
PC-3 prostate
  TGI: > 10 µM
U251 CNS
  TGI: > 10 µM
HCT-15 colon
  TGI: > 10 µM
A549 NSCLC
  TGI: > 10 µM
NCI-H460 lung
  TGI: > 10 µM
KM12 colon
  TGI: > 10 µM
SN12C renal
  TGI: > 10 µM
K-562 leukemia
  TGI: > 10 µM
RXF 393 renal
  TGI: > 10 µM
NCI-H522 lung
  TGI: > 10 µM
ACHN renal
  TGI: > 10 µM
NCI-H226 lung
  TGI: > 10 µM
SK-MEL-28 melanoma
  TGI: > 10 µM
T-47D breast
  TGI: > 10 µM
COLO 205 colon
  TGI: > 10 µM
MDA-MB-231 breast
  TGI: > 10 µM
HCT-116 colon
  TGI: > 10 µM
UACC-257 melanoma
  TGI: > 10 µM
HT29 colon
  TGI: > 10 µM
OVCAR-8 ovarian
  TGI: > 10 µM
SF-295 CNS
  TGI: > 10 µM
BT-549 breast
  TGI: > 10 µM
MALME-3M melanoma
  TGI: > 10 µM
EKVX NSCLC
  TGI: > 10 µM
M14 melanoma
  TGI: > 10 µM
IGROV1 ovarian
  TGI: > 10 µM
SF-268 CNS
  TGI: > 10 µM
MDA-N
  TGI: > 10 µM
MDA-MB-435
  TGI: > 10 µM
LOX IMVI melanoma
  TGI: > 10 µM
CAKI-1 renal
  TGI: > 10 µM
SF-539 CNS
  TGI: > 10 µM
HCC-2998 colon
  TGI: > 10 µM
SK-MEL-5 melanoma
  TGI: > 10 µM
SNB-19 CNS
  TGI: > 10 µM
SK-MEL-2 melanoma
  TGI: > 10 µM
OVCAR-5 ovarian
  TGI: > 10 µM
HS 578T breast
  TGI: > 10 µM
OVCAR-4 ovarian
  TGI: > 10 µM
UACC-62 melanoma
  TGI: > 10 µM
MCF7 breast
  TGI: > 10 µM
DU-145 prostate
  TGI: > 10 µM
RPMI-8226 leukemia
  TGI: > 10 µM
A498 renal
  TGI: > 10 µM
NCI-H23 lung
  TGI: > 10 µM
SW-620 colon
  TGI: > 10 µM
SNB-75 CNS
  TGI: > 10 µM
NCI/ADR-RES ovarian
  TGI: > 10 µM
MOLT-4 leukemia
  TGI: > 10 µM
CCRF-CEM leukemia
  TGI: > 10 µM
SK-OV-3 ovarian
  TGI: > 10 µM
HOP-62 NSCLC
  TGI: > 10 µM
OVCAR-3 ovarian
  TGI: > 10 µM
